Experimental data from patent US20040043432A1, “Compounds targeted to cellular locations” (priority 2000, published 2004).
Entries after “also recorded” stand apart in the source; their conditions may differ.

B1: APT530: short consensus repeats 1,2,3 and 4 of human CD55 (DAF) with a carboxyl terminal cysteine, expressed in E. coli (SEQ ID No: 10) (protein)
chain: MQDCGLPPDVPNAQPALEGRTSFPEDTVITYKCEESFVKIPGEKDSVICLKGSQWSDIEEFCNRSCEVPTRLNSASLKQPYITQNYFPVGTVVEYECRPGYRREPSLSPKLTCLQNLKWSTAVEFCKKKSCPNPGEIRNGQIDVPGGILFGATISFSCNTGYKLFGSTSSFCLISGSSVQWSDPLPECREIYCPAPPQIDNGIIQGERDHYGYRQSVTYACNKGFTMIGEHSIYCTVNNDEGEWSGPPPECRGC
B2: APT2334: APT530 linked to a single molecule of APT542 (MSWP-1) (SEQ ID No: 11) (conjugate)
chain: MQDCGLPPDVPNAQPALEGRTSFPEDTVITYKCEESFVKIPGEKDSVICLKGSQWSDIEEFCNRSCEVPTRLNSASLKQPYITQNYFPVGTVVEYECRPGYRREPSLSPKLTCLQNLKWSTAVEFCKKKSCPNPGEIRNGQIDVPGGILFGATISFSCNTGYKLFGSTSSFCLISGSSVQWSDPLPECREIYCPAPPQIDNGIIQGERDHYGYRQSVTYACNKGFTMIGEHSIYCTVNNDEGEWSGPPPECRGCCDGPKKKKKKSPSKSSG
modifications: APT530 linked to APT542 (MSWP-1)
B3: APT632: soluble CD59 from human urine (u-hCD59, Seq. ID No. 1) thiolated with 2-iminothiolane and linked to APT542 (conjugate, listed as Homo sapiens)
chain: LQCYNCPNPTADCKTAVNCSSDFDACLITKAGLQVYNKCWKFEHCNFNDVTTRLRENELTYYCCKKDLCNFNEQLEN
modifications: thiolated with 2-iminothiolane, linked to APT542

Key:
[1] = test system: lipid rafts on Raji cells; assay: fluorescence microscopy colocalisation with lipid raft markers; assay type: cell-based; settings: 60 min at 37C, APT2104 with endogenous CD59, APT2105 and APT070 with FITC-CTB
Raji cells = assay: confocal microscopy of intracellular localization; assay type: cell-based; settings: confocal microscope, added singly or with raft markers
Description: For confocal microscopy, cells were treated with a variety of compounds and antibodies as described above. The cells were fixed and mounted as described and visualised using an Axiophot microscope (Carl Zeiss) coupled to a Colour Coolview CCD colour camera. Filter settings for the simultaneous detection of red and green fluorescence were used. The digital images were processed using Photoshop software (Adobe Systems). Cell images were obtained that visualised either the surface of the cell or cell sections.
This example follows the same procedure as described in example 13 with the following modifications. In certain experiments, lipid raft targeted compounds were added to the cells either singly, or in combination with other compounds. The compounds were then visualized with fluorescent antibodies or in the case of APT2104 and APT2105 by their intrinsic fluorescence, in each case using a confocal microscope as described in methods.

[2] = test system: classical pathway-mediated haemolysis of sheep erythrocytes; settings: described in WO 98/02454; cited from earlier work
[3] = test system: complement-mediated lysis by human serum; assay: haemolytic assay (1:400 dilution of human serum); assay type: cell-based; settings: read-out: concentration required to bring about 50% inhibition of lysis (IH50)
Source text: APT530 is a protein that comprises the short consensus repeats 1,2,3 and 4 of human CD55 (decay accelerating factor, DAF), with a carboxyl terminal cysteine residue expressed in a recombinant form in E. coli cells. cDNA that encoded human DAF mRNA was generated from total brain RNA as described in Example 9. A plasmid to encode APT530 was generated by PCR using the pUC-DAF plasmid as template. Primers were designed to amplify the region of the DAF gene encoding amino acids 35-285 (SCR1-4). The 5′ primer incorporated an NdeI restriction enzyme site, and a codon specifying glutamine, thereby introducing an amino terminal methionine-glutamine amino acid pair. The 3′ primer added a carboxyl terminal cysteine residue and incorporated an EcoRI restriction enzyme site. The PCR product was cloned into the pUC57/T T-vector as described, sequenced, the insert excised with NdeI and EcoRI, and ligated into pET266 (Novagen, Madison, USA). The product of this ligation is the plasmid pET99-01, which expresses DAF (SCR1-4). pET99-01 DNA was introduced into E. coli HAMS113 (see methods) and expression of the recombinant protein induced as described in Example 1. The expression of APT530 was analysed by SDS-PAGE (described in methods). […] Refolded […] was analysed by SDSPAGE, Western blot and the effectiveness of the protein in a haemolytic assay (described in methods). […]

[4] = test system: complement-mediated lysis of guinea pig erythrocytes by human serum; assay: C5b6-initiated reactive lysis of erythrocytes; assay type: cell-based; settings: reactive lysis assay
Description: C56 euglobulin was an essential reagent that was used for the C5b6-initiated reactive lysis of erythrocytes. C56 euglobulin was generated in and purified from some acute-phase sera from post-trauma individuals (such as sports injuries, surgery or childbirth). Blood was drawn from donors in the acute phase of inflammation and allowed to clot at room temperature. To each 10 mls of serum, 0.5 mls of yeast suspension was added and the mixture incubated overnight on a rotator at room temperature. The serum was centrifuged to remove the yeast and dialysed against 0.02M Na/K phosphate, pH 5.4. The precipitate (containing the C56 euglobulin) was collected by centrifugation and redisolved in 0.01M Na/K phosphate/0.05M NaCl, pH7.0 containing 25% v/v glycerol.
Guinea pig erythrocytes (TCS Microbiological, UK) were washed twice in PBS and resuspended to 5% by volume in PBS/0.05% CHAPS. 50 microL of these cells were placed in the wells of a round-bottomed microtitre plate. Samples to be tested were diluted in PBS/0.05% CHAPS and 50 microL of these test solutions then added to the wells containing the guinea pig erythrocytes. The plate was then incubated at 37 degrees Celsius for 20 minutes to allow binding of the samples to the erythrocytes. […] 100 microL of the supernatant was transferred to a clear flat bottomed microtitre plate and the absorbance at 410 nm measured spectroscopically. […]

| Molecule | co-localisation with lipid raft markers (FITC-CTB / endogenous CD59) [1] | intracellular localization (intracellular fluorescence) (Raji cells) | IC50 [3] | further results |
| --- | --- | --- | --- | --- |
| N-Myristoyl Gly-Ser-Ser-Lys-Ser-Pro-Ser-Lys-Lys-Lys-Lys-Lys-Lys-Pro-Gly-Glu-Cys(S-succinimido Alexafluor™546 C5)-NH2 [APT2105] | co-localise; also recorded: discrete punctate pattern | intracellular fluorescence was seen | – | – |
| N-Myristoyl-Gly-Ser-Ser-Lys-Ser-Pro-Ser-Lys-Lys-Lys-Lys-Lys-Lys-Pro-Gly-Glu-Cys(S-succinimido Alexafluor™488 C5)-NH2 [APT2104] | co-localise; also recorded: discrete punctate pattern | intracellular fluorescence was seen | – | – |
| APT070: residues 1-196 of CR1 ([SCR1-3]-Cys) derivatised with myristoyl cationic peptide MSWP-1; WO 98/02454 example 8 [reference compound] | co-localise; also recorded: discrete punctate pattern | intracellular fluorescence was seen | – | anti-complement activity, potency relative to [SCR1-3]-Cys [2]: 100-1000 fold |
| B1 | – | – | ~40 nM | – |
| B2 | – | – | 0.2 nM | – |
| B3 | – | – | – | concentration at which guinea pig erythrocytes are protected from complement-mediated lysis by human serum [4]: greater than 0.5 nM |
